PubChem BioAssay AID2060905 (Molecular Pharmacology Branch, DTP, NCI, 2025)

Tested on: 282377-053-R-J1-PDC complex spheroid viability
Assay: Anticancer human tumor 282377-053-R-J1-PDC patient-derived colon adenocarcinoma cell line growth inhibition [RAS]
Details: for IC50: curve of first compound; for viability, T/C: stronger effect = lower value
In short: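 Agents were tested in combination matrices in half-log decrements from a top concentration at or near clinical Cmax (10 microM if undetermined). Targets were multi-cell spheroids of tumour lines plus HUVEC and MSC stromal cells.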

[1] = second compound 0.000949 µM, first compound 0.00316 µM
[2] = second compound 0.000949 µM, first compound 0.01 µM
[3] = second compound 0.000949 µM, first compound 0.0316 µM
[4] = second compound 0.000949 µM, first compound 0.1 µM
[5] = second compound 0.003 µM, first compound 0.00316 µM
[6] = second compound 0.003 µM, first compound 0.01 µM
[7] = second compound 0.003 µM, first compound 0.0316 µM
[8] = second compound 0.003 µM, first compound 0.1 µM
[9] = second compound 0.00949 µM, first compound 0.00316 µM
[10] = second compound 0.00949 µM, first compound 0.01 µM
[11] = second compound 0.00949 µM, first compound 0.0316 µM
[12] = second compound 0.00949 µM, first compound 0.1 µM
[13] = second compound 0.03 µM, first compound 0.00316 µM
[14] = second compound 0.03 µM, first compound 0.01 µM
[15] = second compound 0.03 µM, first compound 0.0316 µM
[16] = second compound 0.03 µM, first compound 0.1 µM
[17] = second compound 0.0949 µM, first compound 0.00316 µM
[18] = second compound 0.0949 µM, first compound 0.01 µM
[19] = second compound 0.0949 µM, first compound 0.0316 µM
[20] = second compound 0.0949 µM, first compound 0.1 µM
[21] = second compound 0.3 µM, first compound 0.00316 µM
[22] = second compound 0.3 µM, first compound 0.01 µM
[23] = second compound 0.3 µM, first compound 0.0316 µM
[24] = second compound 0.3 µM, first compound 0.1 µM
[25] = second compound 0.000949 µM, first compound 0.316 µM
[26] = second compound 0.000949 µM, first compound 1 µM
[27] = second compound 0.000949 µM, first compound 3.16 µM
[28] = second compound 0.000949 µM, first compound 10 µM
[29] = second compound 0.003 µM, first compound 0.316 µM
[30] = second compound 0.003 µM, first compound 1 µM
[31] = second compound 0.003 µM, first compound 3.16 µM
[32] = second compound 0.003 µM, first compound 10 µM
[33] = second compound 0.00949 µM, first compound 0.316 µM
[34] = second compound 0.00949 µM, first compound 1 µM
[35] = second compound 0.00949 µM, first compound 3.16 µM
[36] = second compound 0.00949 µM, first compound 10 µM
[37] = second compound 0.03 µM, first compound 0.316 µM
[38] = second compound 0.03 µM, first compound 1 µM
[39] = second compound 0.03 µM, first compound 3.16 µM
[40] = second compound 0.03 µM, first compound 10 µM
[41] = second compound 0.0949 µM, first compound 0.316 µM
[42] = second compound 0.0949 µM, first compound 1 µM
[43] = second compound 0.0949 µM, first compound 3.16 µM
[44] = second compound 0.0949 µM, first compound 10 µM
[45] = second compound 0.3 µM, first compound 0.316 µM
[46] = second compound 0.3 µM, first compound 1 µM
[47] = second compound 0.3 µM, first compound 3.16 µM
[48] = second compound 0.3 µM, first compound 10 µM
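Note: spheroids exposed to agents for seven days before readout.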
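Throughout, for viability, T/C: luminescence viability as percent of DMSO vehicle control wells.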

CC(C)n1nc(-c2ccc3oc(N)nc3c2)c2c(N)ncnc21 + CCn1c(-c2cc(N3CCN(C)CC3)cnc2C(C)OC)c2c3cc(ccc31)-c1csc(n1)CC(NC(=O)C1CC1C)C(=O)N1CCCC(N1)C(=O)OCC(C)(C)C2
IC50 (second compound 0.000949 µM): > 0.1 µM
IC50 (second compound 0.003 µM): 0.0605 µM
IC50 (second compound 0.00949 µM): 0.0962 µM
IC50 (second compound 0.03 µM): 0.0438 µM
IC50 (second compound 0.0949 µM): 0.0451 µM
IC50 (second compound 0.3 µM): > 0.1 µM
viability, T/C (second compound 0.000949 µM, first compound 0.000316 µM): 68.7%
viability, T/C (second compound 0.000949 µM, first compound 0.001 µM): 101%
viability, T/C [1]: 86.2%
viability, T/C [2]: 74.5%
viability, T/C [3]: 64.3%
viability, T/C [4]: 50.4%
viability, T/C (second compound 0.003 µM, first compound 0.000316 µM): 103%
viability, T/C (second compound 0.003 µM, first compound 0.001 µM): 102%
viability, T/C [5]: 77.8%
viability, T/C [6]: 72.1%
viability, T/C [7]: 61.7%
viability, T/C [8]: 42.1%
viability, T/C (second compound 0.00949 µM, first compound 0.000316 µM): 96.1%
viability, T/C (second compound 0.00949 µM, first compound 0.001 µM): 102%
viability, T/C [9]: 93.8%
viability, T/C [10]: 73.4%
viability, T/C [11]: 54.3%
viability, T/C [12]: 49.5%
viability, T/C (second compound 0.03 µM, first compound 0.000316 µM): 104%
viability, T/C (second compound 0.03 µM, first compound 0.001 µM): 88%
viability, T/C [13]: 88.9%
viability, T/C [14]: 62.4%
viability, T/C [15]: 54%
viability, T/C [16]: 43.5%
viability, T/C (second compound 0.0949 µM, first compound 0.000316 µM): 100%
viability, T/C (second compound 0.0949 µM, first compound 0.001 µM): 84.9%
viability, T/C [17]: 86.9%
viability, T/C [18]: 60.7%
viability, T/C [19]: 57.7%
viability, T/C [20]: 39.5%
viability, T/C (second compound 0.3 µM, first compound 0.000316 µM): 90.3%
viability, T/C (second compound 0.3 µM, first compound 0.001 µM): 98.8%
viability, T/C [21]: 78.3%
viability, T/C [22]: 65.5%
viability, T/C [23]: 58.9%
viability, T/C [24]: 48.9%

CC1(O)CCCC1n1c(=O)c(C(F)F)cc2cnc(NC3CCN(S(C)(=O)=O)CC3)nc21 (stereo not drawn) + CCn1c(-c2cc(N3CCN(C)CC3)cnc2C(C)OC)c2c3cc(ccc31)-c1csc(n1)CC(NC(=O)C1CC1C)C(=O)N1CCCC(N1)C(=O)OCC(C)(C)C2
IC50 (second compound 0.000949 µM): 6.75 µM
IC50 (second compound 0.003 µM): 7.15 µM
IC50 (second compound 0.00949 µM): 7.03 µM
IC50 (second compound 0.03 µM): 6.98 µM
IC50 (second compound 0.0949 µM): 6.92 µM
IC50 (second compound 0.3 µM): 7.08 µM
viability, T/C [3]: 101%
viability, T/C [4]: 141%
viability, T/C [25]: 112%
viability, T/C [26]: 155%
viability, T/C [27]: 162%
viability, T/C [28]: 6.35%
viability, T/C [7]: 116%
viability, T/C [8]: 117%
viability, T/C [29]: 151%
viability, T/C [30]: 146%
viability, T/C [31]: 204%
viability, T/C [32]: 10.2%
viability, T/C [11]: 91.9%
viability, T/C [12]: 115%
viability, T/C [33]: 165%
viability, T/C [34]: 153%
viability, T/C [35]: 189%
viability, T/C [36]: 9.24%
viability, T/C [15]: 112%
viability, T/C [16]: 104%
viability, T/C [37]: 169%
viability, T/C [38]: 182%
viability, T/C [39]: 167%
viability, T/C [40]: 6.22%
viability, T/C [19]: 94.1%
viability, T/C [20]: 141%
viability, T/C [41]: 139%
viability, T/C [42]: 141%
viability, T/C [43]: 203%
viability, T/C [44]: 5.83%
viability, T/C [23]: 106%
viability, T/C [24]: 134%
viability, T/C [45]: 152%
viability, T/C [46]: 190%
viability, T/C [47]: 174%
viability, T/C [48]: 6.62%

CCN1CCN(Cc2ccc(Nc3ncc(F)c(-c4cc(F)c5nc(C)n(C(C)C)c5c4)n3)nc2)CC1 + CCn1c(-c2cc(N3CCN(C)CC3)cnc2C(C)OC)c2c3cc(ccc31)-c1csc(n1)CC(NC(=O)C1CC1C)C(=O)N1CCCC(N1)C(=O)OCC(C)(C)C2
IC50 (second compound 0.000949 µM): > 1 µM
IC50 (second compound 0.003 µM): > 1 µM
IC50 (second compound 0.00949 µM): > 1 µM
IC50 (second compound 0.03 µM): > 1 µM
IC50 (second compound 0.0949 µM): > 1 µM
IC50 (second compound 0.3 µM): > 1 µM
viability, T/C [1]: 101%
viability, T/C [2]: 119%
viability, T/C [3]: 98.1%
viability, T/C [4]: 120%
viability, T/C [25]: 188%
viability, T/C [26]: 180%
viability, T/C [5]: 102%
viability, T/C [6]: 137%
viability, T/C [7]: 114%
viability, T/C [8]: 90.1%
viability, T/C [29]: 142%
viability, T/C [30]: 170%
viability, T/C [9]: 115%
viability, T/C [10]: 126%
viability, T/C [11]: 96.2%
viability, T/C [12]: 105%
viability, T/C [33]: 108%
viability, T/C [34]: 194%
viability, T/C [13]: 90.4%
viability, T/C [14]: 106%
viability, T/C [15]: 87.7%
viability, T/C [16]: 105%
viability, T/C [37]: 131%
viability, T/C [38]: 212%
viability, T/C [17]: 98.8%
viability, T/C [18]: 112%
viability, T/C [19]: 89.8%
viability, T/C [20]: 123%
viability, T/C [41]: 146%
viability, T/C [42]: 246%
viability, T/C [21]: 102%
viability, T/C [22]: 123%
viability, T/C [23]: 123%
viability, T/C [24]: 119%
viability, T/C [45]: 162%
viability, T/C [46]: 227%

C[C@@H](NC(=O)c1ncnc(N)c1Cl)c1ncc(C(=O)Nc2cc(C(F)(F)F)c(Cl)cn2)s1 + CCn1c(-c2cc(N3CCN(C)CC3)cnc2C(C)OC)c2c3cc(ccc31)-c1csc(n1)CC(NC(=O)C1CC1C)C(=O)N1CCCC(N1)C(=O)OCC(C)(C)C2
IC50 (second compound 0.000949 µM): > 10 µM
IC50 (second compound 0.003 µM): > 10 µM
IC50 (second compound 0.00949 µM): > 10 µM
IC50 (second compound 0.03 µM): > 10 µM
IC50 (second compound 0.0949 µM): > 10 µM
IC50 (second compound 0.3 µM): > 10 µM
viability, T/C [3]: 82.7%
viability, T/C [4]: 100%
viability, T/C [25]: 80%
viability, T/C [26]: 82.7%
viability, T/C [27]: 75.6%
viability, T/C [28]: 68.8%
viability, T/C [7]: 89.8%
viability, T/C [8]: 125%
viability, T/C [29]: 81.8%
viability, T/C [30]: 90.2%
viability, T/C [31]: 70.6%
viability, T/C [32]: 59.2%
viability, T/C [11]: 110%
viability, T/C [12]: 115%
viability, T/C [33]: 85.8%
viability, T/C [34]: 94%
viability, T/C [35]: 68%
viability, T/C [36]: 57.9%
viability, T/C [15]: 97.2%
viability, T/C [16]: 106%
viability, T/C [37]: 89.4%
viability, T/C [38]: 96%
viability, T/C [39]: 63.2%
viability, T/C [40]: 60.1%
viability, T/C [19]: 110%
viability, T/C [20]: 105%
viability, T/C [41]: 77.1%
viability, T/C [42]: 94.2%
viability, T/C [43]: 73.1%
viability, T/C [44]: 74.2%
viability, T/C [23]: 94.3%
viability, T/C [24]: 103%
viability, T/C [45]: 89.3%
viability, T/C [46]: 108%
viability, T/C [47]: 86.4%
viability, T/C [48]: 61.2%
